Patent US20080038349A1, “Peptide-Pna Chimera Targeting Inducible Nitric Oxide Synthetase” (priority 2004, published 2008)
{Gly} = glycine residue at the PNA end written 3'; {Lys} = lysine residue at the PNA end written 5'

How the values were obtained:
macrophags iNOS = conditions: in vitro, macrophages; cited from earlier work
[1] = tested on: Sense 5′-3′: GAA AGA GGA AAA GG; assay: Hybridization experiments (Tm from UV melting curves); assay type: binding; conditions: for Tm (temperature of melting, hybridization): vs sense DNA, duplex 5 μM, 10 mM phosphate buffer, 100 mM NaCl, 0.1 mM EDTA, pH=7
Description: The DNA sequences used in the hybridization experiments were purchased from (Sigma; USA). A PNA sequence was purchased from Bio-Synthesis Inc. (Lewisville, USA). All hybrid samples reported were first incubated at 90° C. for 5 minutes, then slowly cooled at room temperature. The Duplex concentration of the various samples was 5 μM. All hybridization experiments were carried out in a 10 mM phosphate buffer, 100 mM NaCl, 0.1 mM EDTA, pH=7. Temperature was monitored by an internal thermocouple, at an accuracy of ±0.3° C. Melting curves were recorded by heating the samples (1° C./min) with a 2-min. hold time by UV signal at 260 nm. Melting temperatures were taken as the maximum of the first derivative of the melting curves. UV absorbance measurements were performed on a Varian Cart 5E UV-VIS-NIR spectrophotometer equipped with a Cary temperature controller, in 1-cm quartz cells.
The modifications on the PNA chain although improving bioavailability can diminish activity (hybridization). To examine the effect of modifications on activity properties an experiment was conducted to examine the hybridization properties (determined by changes in temperature of melting or Tm) KBP-10 sequence. Tm value (39.5° C.) was almost the same as predicted calculated value based on sequence (40° C.).

Multiple Sclerosis Model = assay: Multiple sclerosis model (MOG 35-55 inoculated mice); assay type: in vivo; conditions: 10 mg/kg for 10 consecutive days
Description: Mice (female, Cpb 57B1/6; Harlan) were inoculated with ecephalitogenic peptide (MOG 35-55; synthesized at the Hebrew university) emulsified with CFA and pertussis toxin (Sigma) and in the same time were treated with CH(K)6HC-O-5′CTTTCTCCTTTTCC3′-O-HAIYPRH (KBP-11; 10 mg/kg; n=3) or with vehicle solution (control group; n=4) for 10 consecutive days, starting a day after the inoculation of MOG.
At the end the experiment (day 30) animals were scarified and brain tissue were send to histological (H&E analysis) and immunohistochemical (iNOS expression) analysis.

cells in culture = conditions: cited from earlier work
[2] = starting a day after MOG inoculation, n=3

3′-Gly-CTTTCTCCTTTTCC-Lys 5′ (all peptide nucleic acid (PNA), 5' {Lys}, 3' {Gly}) [PNA targeting macrophage iNOS]
iNOS expression (macrophags iNOS): specifically diminished its expression

CH(K)6HC-O-5′CTTTCTCCTTTTCC3′-O-HAIYPRH [KBP-11]
Effect of peptide modification on hybridization properties ([1]; modified PNA vs. ODN, FIG. 1): did not affect the hybridization properties
Tm (temperature of melting, hybridization) [1]: 39.00 °C
Incidence (Multiple Sclerosis Model; [2]): 1/3
Mean disease duration (Multiple Sclerosis Model; [2]): 6 days
Mean Score (Disease burden) (Multiple Sclerosis Model; clinical score 0-6): 0.4 ± 0.16

CHK6HC
Transfection of cells in culture (cells in culture): improved transfection of cells in culture

CTTTCTCCTTTTCC (chemistry not given here) [Oligodeoxynucleotide, reference compound]
Tm (temperature of melting, hybridization) [1]: 46.96 °C
